The target in this experiment is human orexin-2 receptor (Homo sapiens (Human), UniProt O43614). The experiment in a line: FLIPR Ca2+ Flux Assay, orexin-2 receptor. The experiment is classed as cell-based. The following applies: CHO cells expressing the human orexin-2 receptor; agonist 70 pM Ala-6,12 orexin-A; read-out: hOX2R FLIPR IC50. The method in brief: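 CHO cells expressing rat OX1 or human OX2 receptor, Fluo-4AM loaded 60 min; compound preincubated 5 min before 70 pM Ala-6,12 human orexin-A in HBSS/20 mM HEPES/0.1% BSA/2.5 mM probenecid, pH 7.4. FLIPR peak fluorescence over 5 min versus agonist-only response gives IC50.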
In general terms: A change in cytosolic calcium serves as a functional read-out for many receptors and channels.

pIC50: −log10 of the molar value.

human orexin-2 receptor, sequence (O43614 whole entry): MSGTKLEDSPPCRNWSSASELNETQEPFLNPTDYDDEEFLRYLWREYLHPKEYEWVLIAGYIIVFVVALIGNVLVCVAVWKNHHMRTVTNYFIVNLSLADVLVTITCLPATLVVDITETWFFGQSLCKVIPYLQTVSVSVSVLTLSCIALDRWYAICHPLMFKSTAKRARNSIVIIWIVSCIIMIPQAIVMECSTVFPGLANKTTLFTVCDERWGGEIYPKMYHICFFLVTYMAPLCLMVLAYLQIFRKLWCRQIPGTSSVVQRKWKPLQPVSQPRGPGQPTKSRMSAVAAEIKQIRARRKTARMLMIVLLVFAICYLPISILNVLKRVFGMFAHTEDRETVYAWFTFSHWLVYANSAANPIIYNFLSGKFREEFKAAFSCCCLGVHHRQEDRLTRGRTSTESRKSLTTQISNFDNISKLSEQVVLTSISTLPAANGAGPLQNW

As for `CCN(CCN(C)c1nccc(C(C)(C)O)n1)C(=O)c1cccnc1CC(F)(F)F` [Example H-23, N-ethyl-N-(2-((4-(2-hydroxypropan-2-yl)pyrimidin-2-yl)(methyl)amino)ethyl)-2-(2,2,2-trifluoroethyl)nicotinamide], the pIC50 was 6.75.
Consider `CCN(CCN(C)c1nccc(C(C)(C)O)n1)C(=O)c1ccccc1CC(F)F` [Example H-24, 2-(2,2-difluoroethyl)-N-ethyl-N-(2-((4-(2-hydroxypropan-2-yl)pyrimidin-2-yl)(methyl)amino)ethyl) benzamide], for which the negative logarithm of the IC50 (pIC50) was 7.69.
To `CCN(CCN(C)c1nccc(C(C)(C)O)n1)C(=O)c1ccccc1C1CC1` [Example H-25, 2-cyclopropyl-N-ethyl-N-(2-((4-(2-hydroxypropan-2-yl)pyrimidin-2-yl)(methyl)amino)ethyl) benzamide] belongs 8.04; to `CCN(CCN(C)c1nccc(C(C)(C)O)n1)C(=O)c1ccccc1C1CC1(F)F` (stereo not shown) [Example H-26, 2-(2,2-difluorocyclopropyl)-N-ethyl-N-(2-((4-(2-hydroxypropan-2-yl)pyrimidin-2-yl)(methyl)amino)ethyl) benzamide], 7.77; to `CCN(CCN(C)c1nccc(C(C)(C)O)n1)C(=O)c1ccccc1OC(F)(F)F` [Example H-27], 8.00.
Under `CCN(CCN(C)c1nccc(C(C)(C)O)n1)C(=O)c1ccc(OC)nc1C1CC1` [Example H-28, 2-cyclopropyl-N-ethyl-N-(2-((4-(2-hydroxypropan-2-yl)pyrimidin-2-yl)(methyl)amino)ethyl)-6-methoxynicotinamide] stands 7.70; under `CCN(CCN(C)c1nccc(C(C)(C)O)n1)C(=O)c1ccccc1-n1ncnn1` [Example H-29, N-ethyl-N-(2-((4-(2-hydroxypropan-2-yl)pyrimidin-2-yl)(methyl)amino)ethyl)-2-(2H-tetrazol-2-yl)benzamide], 7.77.
To `CCN(CCN(C)c1nccc(C(C)(C)O)n1)C(=O)c1cccnc1-c1ccccc1` [Example H-30, N-ethyl-N-(2-((4-(2-hydroxypropan-2-yl)pyrimidin-2-yl)(methyl)amino)ethyl)-2-phenylnicotinamide] belongs 7.28; to `CCN(CCN(C)c1nccc(C(C)(C)O)n1)C(=O)c1ncccc1-c1ccccc1` [Example H-31, N-ethyl-N-(2-((4-(2-hydroxypropan-2-yl)pyrimidin-2-yl)(methyl)amino)ethyl)-3-phenylpicolinamide], 7.64; to `CCN(CCN(C)c1nccc(C(C)(C)O)n1)C(=O)c1nccnc1-n1cccn1` [Example H-32, N-ethyl-N-(2-((4-(2-hydroxypropan-2-yl)pyrimidin-2-yl)(methyl)amino)ethyl)-3-(1H-pyrazol-1-yl)pyrazine-2-carboxamide], 7.27.
In the case of `CCN(CCN(C)c1nccc(C(C)(C)O)n1)C(=O)c1cccnc1-n1cccn1` [Example H-33, N-ethyl-N-[2-[[4-(1-hydroxy-1-methyl-ethyl)pyrimidin-2-yl]-methyl-amino]ethyl]-2-pyrazol-1-yl-pyridine-3-carboxamide], the pIC50 was 7.43.
Regarding `CCN(CCN(C)c1nccc(C(C)(C)O)n1)C(=O)c1ncccc1-n1nccn1` [Example H-34, N-ethyl-N-[2-[[4-(1-hydroxy-1-methyl-ethyl)pyrimidin-2-yl]-methyl-amino]ethyl]-3-(triazol-2-yl)pyridine-2-carboxamide], the pIC50 was 7.37.
To `CCN(CCN(C)c1cccc(C(C)(C)O)n1)C(=O)c1ccccc1-n1nccn1` [Example I-1, N-ethyl-N-(2-((6-(2-hydroxypropan-2-yl)pyridin-2-yl)(methyl)amino)ethyl)-2-(2H-1,2,3-triazol-2-yl)benzamide] belongs 7.91; to `CCN(CCN(C)c1cccc(C(C)(C)O)n1)C(=O)c1ccccc1OCC(F)F` [Example I-4, 2-(2,2-difluoroethoxy)-N-ethyl-N-(2-((6-(2-hydroxypropan-2-yl)pyridin-2-yl)(methyl)amino)ethyl)benzamide], 6.75; to `CCN(CCN(C)c1cccc(C(C)(C)O)n1)C(=O)c1ncccc1-n1nccn1` [Example I-9, N-ethyl-N-(2-((6-(2-hydroxypropan-2-yl)pyridin-2-yl)(methyl)amino)ethyl)-3-(2H-1,2,3-triazol-2-yl)picolinamide], 6.51.
Take `CCN(CCN(C)c1cccc(C(C)(C)O)n1)C(=O)c1ccccc1-n1cccn1` [Example I-10, N-ethyl-N-(2-((6-(2-hydroxypropan-2-yl)pyridin-2-yl)(methyl)amino)ethyl)-2-(1H-pyrazol-1-yl)benzamide]: the pIC50 was 7.03.
On to `CCN(CCN(C)c1cccc(C(C)(C)O)n1)C(=O)c1nccnc1-n1cccn1` [Example I-11, N-ethyl-N-(2-((6-(2-hydroxypropan-2-yl)pyridin-2-yl)(methyl)amino)ethyl)-3-(1H-pyrazol-1-yl)pyrazine-2-carboxamide], for which the negative logarithm of the IC50 (pIC50) was 6.48.
`CCN(CCN(C)c1cccc(C(C)(C)O)n1)C(=O)c1ccccc1OC(F)(F)F` [Example I-12, N-ethyl-N-(2-((6-(2-hydroxypropan-2-yl)pyridin-2-yl)(methyl)amino)ethyl)-2-(trifluoromethoxy)benzamide]: the pIC50 was 7.13.
As for `CCN(CCN(C)c1cccc(C(C)(C)O)n1)C(=O)c1ccccc1C1CC1` [Example I-13, 2-cyclopropyl-N-ethyl-N-(2-((6-(2-hydroxypropan-2-yl)pyridin-2-yl)(methyl)amino)ethyl)benz-amide], the pIC50 was 7.27.
To `CCN(CCN(C)c1cccc(C(C)(C)O)n1)C(=O)c1ccccc1OC(F)F` [Example I-14, 2-(difluoromethoxy)-N-ethyl-N-(2-((6-(2-hydroxypropan-2-yl)pyridin-2-yl)(methyl)amino)ethyl)benz-amide] belongs 6.70.
To `CCN(CCN(C)c1cccc(C(C)(C)O)n1)C(=O)c1cccnc1OCC(F)(F)F` [Example I-15, N-ethyl-N-(2-((6-(2-hydroxypropan-2-yl)pyridin-2-yl)(methyl)amino)ethyl)-2-(2,2,2-trifluoroethoxy)nicotinamide] belongs 6.51.
To `CCN(CCN(C)c1cccc(C(C)(C)O)n1)C(=O)c1cccnc1OCC(F)F` [Example I-16, 2-(2,2-difluoroethoxy)-N-ethyl-N-(2-((6-(2-hydroxypropan-2-yl)pyridin-2-yl)(methyl)amino)ethyl)nicotin-amide] belongs 6.63; to `CCN(CCN(C)c1cccc(C(C)(C)O)n1)C(=O)c1ccccc1OCC(F)(F)F` [Example I-17, N-ethyl-N-(2-((6-(2-hydroxypropan-2-yl)pyridin-2-yl)(methyl)amino)ethyl)-2-(2,2,2-trifluoroethoxy)benzamide], 6.49; to `CCOc1ccccc1C(=O)N(CC)CCN(C)c1cccc(C(C)(C)O)n1` [Example I-18, 2-ethoxy-N-ethyl-N-(2-((6-(2-hydroxypropan-2-yl)pyridin-2-yl)(methyl)amino)ethyl)benz-amide], 6.81.
As for `CCN(CCN(C)c1cccc(C(C)(C)O)n1)C(=O)c1cccnc1CC(F)(F)F` [Example I-19, N-ethyl-N-(2-((6-(2-hydroxypropan-2-yl)pyridin-2-yl)(methyl)amino)ethyl)-2-(2,2,2-trifluoroethyl)nicotinamide], the negative-log IC50 (pIC50) is 5.64.
Under `CCN(CCN(C)c1cccc(C(C)(C)O)n1)C(=O)c1ccccc1C1CC1(F)F` (stereo not shown) [Example I-20, 2-(2,2-difluorocyclopropyl)-N-ethyl-N-(2-((6-(2-hydroxypropan-2-yl)pyridin-2-yl)(methyl)amino)ethyl)benz-amide] stands 7.44.
To `CCN(CCN(C)c1cccc(C(C)(C)O)n1)C(=O)c1cccnc1OC(C)C` [Example I-21, N-ethyl-N-(2-((6-(2-hydroxypropan-2-yl)pyridin-2-yl)(methyl)amino)ethyl)-2-isopropoxynicotinamide] belongs 6.41.
To `CCN(CCN(C)c1cccc(C(C)(C)O)n1)C(=O)c1ncccc1-c1ccccc1` [Example I-22, N-ethyl-N-(2-((6-(2-hydroxypropan-2-yl)pyridin-2-yl)(methyl)amino)ethyl)-3-phenylpicolinamide] belongs 6.68.
In the case of `CCN(CCN(C)c1cccc(C(C)(C)O)n1)C(=O)c1ccccc1-n1ncnn1` [Example I-23, N-ethyl-N-(2-((6-(2-hydroxypropan-2-yl)pyridin-2-yl)(methyl)amino)ethyl)-2-(2H-tetrazol-2-yl)benzamide], the negative-log IC50 (pIC50) is 7.16.
For `CCN(CCN(C)c1cccc(C(C)(C)O)n1)C(=O)c1cccnc1-n1cccn1` [Example I-24, N-ethyl-N-(2-((6-(2-hydroxypropan-2-yl)pyridin-2-yl)(methyl)amino)ethyl)-2-(1H-pyrazol-1-yl)nicotinamide], the pIC50 was 6.98.
Under `CCOc1ncccc1C(=O)N(CC)CCN(C)c1cccc(C(C)(C)O)n1` [Example I-25, 2-ethoxy-N-ethyl-N-(2-((6-(2-hydroxypropan-2-yl)pyridin-2-yl)(methyl)amino)ethyl)nicotin-amide] stands 6.33.

A word on the pIC50: it is the IC50 on a negative log10 scale, so that one unit is a factor of ten.

The values are drawn from patent publication US10011595B2 (Merck Sharp & Dohme Corp., priority 2014, dated 2018).
